Experimental data: ChEMBL document CHEMBL4339181, “Kinase and Histone Deacetylase Hybrid Inhibitors for Cancer Therapy” (J Med Chem, 2019); call rule not given here

Columns and labels:
[1] = biological target: T1, Protein deacetylase HDAC6 (Homo sapiens, UniProt Q9UBN7)
T1 sequence (Q9UBN7 whole entry): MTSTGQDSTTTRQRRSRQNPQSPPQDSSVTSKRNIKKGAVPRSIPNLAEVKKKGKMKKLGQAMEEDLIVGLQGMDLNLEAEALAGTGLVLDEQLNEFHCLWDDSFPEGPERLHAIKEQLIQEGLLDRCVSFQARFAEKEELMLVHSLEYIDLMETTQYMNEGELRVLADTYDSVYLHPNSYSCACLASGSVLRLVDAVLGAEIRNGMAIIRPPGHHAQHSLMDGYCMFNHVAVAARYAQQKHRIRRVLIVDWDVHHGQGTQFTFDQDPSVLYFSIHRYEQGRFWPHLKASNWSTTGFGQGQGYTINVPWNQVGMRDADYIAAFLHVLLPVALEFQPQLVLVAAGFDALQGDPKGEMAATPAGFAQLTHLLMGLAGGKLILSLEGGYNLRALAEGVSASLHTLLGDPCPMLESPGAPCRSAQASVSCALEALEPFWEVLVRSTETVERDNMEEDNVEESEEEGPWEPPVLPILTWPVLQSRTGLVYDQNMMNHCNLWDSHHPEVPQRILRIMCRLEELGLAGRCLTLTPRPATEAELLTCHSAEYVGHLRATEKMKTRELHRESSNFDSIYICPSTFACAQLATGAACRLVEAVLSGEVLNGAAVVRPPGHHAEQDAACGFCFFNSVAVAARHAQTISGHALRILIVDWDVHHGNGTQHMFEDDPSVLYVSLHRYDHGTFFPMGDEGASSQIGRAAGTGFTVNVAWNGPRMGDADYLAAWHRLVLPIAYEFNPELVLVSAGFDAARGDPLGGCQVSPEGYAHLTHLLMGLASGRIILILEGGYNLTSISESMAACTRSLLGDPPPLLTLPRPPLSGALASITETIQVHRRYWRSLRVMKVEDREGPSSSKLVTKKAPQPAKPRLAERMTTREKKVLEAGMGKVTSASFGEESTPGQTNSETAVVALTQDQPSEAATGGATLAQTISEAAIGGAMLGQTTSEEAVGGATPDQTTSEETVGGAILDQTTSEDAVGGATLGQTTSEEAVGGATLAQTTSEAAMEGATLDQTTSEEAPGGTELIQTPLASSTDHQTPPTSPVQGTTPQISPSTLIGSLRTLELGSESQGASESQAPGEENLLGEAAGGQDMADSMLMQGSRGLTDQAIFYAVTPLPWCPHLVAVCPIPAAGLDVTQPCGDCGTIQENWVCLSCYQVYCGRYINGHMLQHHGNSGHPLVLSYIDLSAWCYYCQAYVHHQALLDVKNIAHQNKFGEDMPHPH
Description: Inhibition of HDAC6 (unknown origin)

Histone deacetylase 8 = biological target: T2, Histone deacetylase 8 (Homo sapiens, UniProt Q9BY41)
T2 sequence (Q9BY41 whole entry): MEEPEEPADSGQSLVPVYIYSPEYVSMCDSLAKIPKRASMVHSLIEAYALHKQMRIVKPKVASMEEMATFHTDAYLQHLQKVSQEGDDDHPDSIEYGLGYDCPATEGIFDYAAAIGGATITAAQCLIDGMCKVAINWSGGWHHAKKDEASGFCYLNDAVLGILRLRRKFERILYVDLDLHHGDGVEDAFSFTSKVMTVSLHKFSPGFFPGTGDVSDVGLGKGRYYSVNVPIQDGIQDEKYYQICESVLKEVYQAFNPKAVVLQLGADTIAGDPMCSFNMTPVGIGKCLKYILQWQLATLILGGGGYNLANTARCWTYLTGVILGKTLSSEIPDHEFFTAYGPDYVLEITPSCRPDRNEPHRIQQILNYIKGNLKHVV
Description: Inhibition of HDAC8 (unknown origin)

Histone deacetylase 9 = Histone deacetylase 9 (Homo sapiens, UniProt Q9UKV0); assay: Inhibition of HDAC9 (unknown origin)
Histone deacetylase 5 = Histone deacetylase 5 (Homo sapiens, UniProt Q9UQL6); assay: Inhibition of HDAC5 (unknown origin)
[2] = Toxicity in patient with advanced solid tumor administered as 1 hr iv infusion for 5 consecutive days every 2 weeks; format: organism-based; conditions: human, in vivo
[3] = Toxicity in patient with advanced solid tumor assessed as serum creatinine elevation administered as 1 hr iv infusion for 5 consecutive days every 2 weeks relative to control; format: organism-based; conditions: human, in vivo
HepG2 = assay: Antitumor activity against human HepG2 cells xenografted in nu/nu CD-1 mouse assessed as tumor regression at 120 mg/kg, iv administered daily relative to control; format: functional
[4] = Toxicity in patient with advanced solid tumor assessed as fatigue administered as 1 hr iv infusion for 5 consecutive days every 2 weeks relative to control; format: organism-based; conditions: human, in vivo
[5] = Toxicity in patient with advanced solid tumor assessed as dry skin administered as 1 hr iv infusion for 5 consecutive days every 2 weeks relative to control; format: organism-based; conditions: human, in vivo
[6] = Toxicity in patient with advanced solid tumor assessed as serum AST elevation administered as 1 hr iv infusion for 5 consecutive days every 2 weeks relative to control; format: organism-based; conditions: human, in vivo
[7] = Toxicity in patient with advanced solid tumor assessed as transient reversible nausea administered as 1 hr iv infusion for 5 consecutive days every 2 weeks relative to control; format: organism-based; conditions: human, in vivo

Histone deacetylase 9, sequence (Q9UKV0 whole entry): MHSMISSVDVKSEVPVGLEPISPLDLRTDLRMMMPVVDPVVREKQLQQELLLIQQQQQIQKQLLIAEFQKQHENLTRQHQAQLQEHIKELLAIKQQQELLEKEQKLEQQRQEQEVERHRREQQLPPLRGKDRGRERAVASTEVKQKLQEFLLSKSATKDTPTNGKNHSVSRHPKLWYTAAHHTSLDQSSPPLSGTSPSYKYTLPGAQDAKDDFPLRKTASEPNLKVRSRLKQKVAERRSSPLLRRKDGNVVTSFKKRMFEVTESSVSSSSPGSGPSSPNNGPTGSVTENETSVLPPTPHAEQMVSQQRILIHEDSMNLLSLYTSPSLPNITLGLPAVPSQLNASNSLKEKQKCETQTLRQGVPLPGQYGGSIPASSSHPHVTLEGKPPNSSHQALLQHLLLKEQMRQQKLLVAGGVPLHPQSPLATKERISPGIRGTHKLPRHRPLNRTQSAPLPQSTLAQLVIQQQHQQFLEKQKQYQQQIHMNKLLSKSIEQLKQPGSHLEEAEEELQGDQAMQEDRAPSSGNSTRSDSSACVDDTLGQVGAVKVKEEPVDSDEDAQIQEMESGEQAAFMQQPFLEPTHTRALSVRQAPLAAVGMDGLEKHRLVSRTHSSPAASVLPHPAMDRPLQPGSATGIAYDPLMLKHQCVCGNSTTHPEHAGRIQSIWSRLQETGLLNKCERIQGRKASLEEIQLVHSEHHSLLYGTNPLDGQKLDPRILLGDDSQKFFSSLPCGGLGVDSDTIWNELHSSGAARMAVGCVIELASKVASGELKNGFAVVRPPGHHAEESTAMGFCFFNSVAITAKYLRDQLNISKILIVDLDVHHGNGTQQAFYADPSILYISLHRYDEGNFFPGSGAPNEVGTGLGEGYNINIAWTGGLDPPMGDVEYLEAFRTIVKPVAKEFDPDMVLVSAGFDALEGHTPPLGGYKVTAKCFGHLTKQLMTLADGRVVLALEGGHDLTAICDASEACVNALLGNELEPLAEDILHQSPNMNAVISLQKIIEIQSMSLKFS
Histone deacetylase 5, sequence (Q9UQL6 whole entry, the tested form may be a part): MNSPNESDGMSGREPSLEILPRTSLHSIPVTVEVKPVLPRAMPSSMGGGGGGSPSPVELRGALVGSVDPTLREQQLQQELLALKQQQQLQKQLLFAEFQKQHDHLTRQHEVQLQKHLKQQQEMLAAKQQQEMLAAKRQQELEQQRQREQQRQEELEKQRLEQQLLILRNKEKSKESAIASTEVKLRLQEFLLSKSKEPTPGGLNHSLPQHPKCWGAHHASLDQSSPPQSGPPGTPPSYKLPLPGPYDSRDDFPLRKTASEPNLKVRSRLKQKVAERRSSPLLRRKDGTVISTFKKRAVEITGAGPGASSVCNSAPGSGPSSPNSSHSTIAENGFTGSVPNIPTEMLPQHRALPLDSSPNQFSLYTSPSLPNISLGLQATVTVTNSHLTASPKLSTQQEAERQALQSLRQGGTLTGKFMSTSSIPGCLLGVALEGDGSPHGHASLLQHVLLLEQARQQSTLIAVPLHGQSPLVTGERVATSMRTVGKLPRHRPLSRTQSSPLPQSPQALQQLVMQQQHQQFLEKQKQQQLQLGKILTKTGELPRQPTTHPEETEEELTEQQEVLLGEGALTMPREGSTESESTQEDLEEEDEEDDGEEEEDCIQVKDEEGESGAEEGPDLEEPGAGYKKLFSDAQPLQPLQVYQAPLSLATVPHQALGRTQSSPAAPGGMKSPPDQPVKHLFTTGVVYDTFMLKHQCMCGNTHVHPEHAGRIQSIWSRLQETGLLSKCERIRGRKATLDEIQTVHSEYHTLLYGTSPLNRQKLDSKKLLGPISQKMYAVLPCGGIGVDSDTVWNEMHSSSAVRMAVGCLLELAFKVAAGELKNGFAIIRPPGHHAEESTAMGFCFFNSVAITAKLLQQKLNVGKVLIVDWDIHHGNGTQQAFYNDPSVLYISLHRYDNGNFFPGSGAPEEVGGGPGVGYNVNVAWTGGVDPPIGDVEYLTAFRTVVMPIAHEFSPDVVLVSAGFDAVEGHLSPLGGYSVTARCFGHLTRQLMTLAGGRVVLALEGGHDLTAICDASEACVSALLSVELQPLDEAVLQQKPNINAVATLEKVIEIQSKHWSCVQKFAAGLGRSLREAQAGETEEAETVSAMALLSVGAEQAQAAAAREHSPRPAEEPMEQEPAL

Row | IC50 [1] | IC50 (Histone deacetylase 8) | IC50 (Histone deacetylase 9) | IC50 (Histone deacetylase 5) | SMILES | MTD [2] | Activity [3] | Activity (HepG2) | Activity [4] | Activity [5] | Activity [6] | Activity [7]
1 | Not Active | Not Active | Not Active | Not Active | O=C(CCCCCCC(=O)Nc1ccccc1)NO [VORINOSTAT] | – | – | – | – | – | – | –
2 | – | – | – | – | C#Cc1cccc(Nc2ncnc3cc(OC)c(OCCCCCCC(=O)NO)cc23)c1 [CUDC-101] | 275 mg/m2 | 12% | 30% | 24% | 16% | 12% | 24%
